What is called mortality is the percentage killed. Read a low mortality as more survivors.

The text below walks through data of US12070483B2, “Compositions and methods for treatment of acute lung injury” (THE TRUSTEES OF THE UNIVERSITY OF PENNSYLVANIA, priority 2018, dated 2024).

One series has as its system NADPH oxidase (NOX2). Kind of series: H2O2 production (Amplex red) of perfused lung 5 min after PIP-2 in saline or liposomes. The format is in vivo, mouse. Particulars: IT or IV. The method, then:
FIGS. 1A and 1B: Wild type C57Bl/6 mice at age 8-10 weeks were injected with 2 ug/g body wt of PIP-2 either through an intratracheal catheter (IT) or intravenously (IV). The injected peptide was dissolved in saline or was incorporated into unilamellar liposomes consisting of dipalmitoyl phosphatidylcholine (DPPC), egg phosphatidylcholine (PC), phosphatidylglycerol (PG), and cholesterol (molar ratio of lipids, 50:25:10:15). […] Mice were sacrificed after 5 min, lungs were perfused until cleared of blood, and then subjected to recirculating perfusion under temperature-controlled (37° C.) conditions in the presence of the fluorescent indicator Amplex red plus horseradish peroxidase (HRP) in order to monitor the oxidation of Amplex red by H2O2. The fluorescence of aliquots of perfusate was measured at the indicated times and expressed as arbitrary fluorescence units (AFU). The increasing fluorescence with time of perfusion indicates the production of H2O2 reflecting the activation of cellular NADPH oxidase (NOX2).
The lungs were removed from mice and studied in an isolated system. The slope of the lines indicates the production of oxidants (H2O2).

For another series, the target named is T1, aiPLA2 activity of Prdx6 (Mus musculus, UniProt O08709).
T1 construct: from tissue; host or cells: mouse lung homogenate (wild type mice)
T1 sequence (O08709 1-224): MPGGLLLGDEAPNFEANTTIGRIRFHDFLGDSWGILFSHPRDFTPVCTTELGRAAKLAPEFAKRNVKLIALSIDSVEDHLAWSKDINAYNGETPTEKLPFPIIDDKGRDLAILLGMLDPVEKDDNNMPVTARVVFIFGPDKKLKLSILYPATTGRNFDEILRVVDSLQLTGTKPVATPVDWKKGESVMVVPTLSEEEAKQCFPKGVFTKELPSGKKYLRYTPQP
Kind of series: Lung aiPLA2 activity after IT LPS. Particulars: PIP-2 with IT LPS 5 μg/g; 6, 12 and 24 h. In kind it is in vivo. As to the method:
FIGS. 4A and 4B: Phospholipase A2 of Prdx6 (aiPLA2) was measured by the liberation of palmitic acid from dipalmitoylphosphatidylcholine under acidic conditions (pH 4) in the absence of Ca^2+. FIG. 4A: The effect of increasing concentration of PIP-2 on the aiPLA2 activity of recombinant human Prdx6. FIG. 4B: The effect of LPS and PIP-2 treatment on aiPLA2 activity of mouse lungs. Mice (n=3 for each condition) were treated with intratracheal LPS (2 μg/g body wt) without or with PIP-2 (2 μg/g body weight) in liposomes. Animals were sacrificed at 6,12, or 24 h after receiving LPS. Lungs were cleared of blood and homogenized.
FIGS. 9A and 9B: PIP-2 inhibits the increased lung aiPLA2 activity and increased ROS generation after LPS administration. LPS (5 μg/g body weight) was administered by intratracheal (IT) instillation along with liposomes alone (labeled as LPS) or with PIP-2 in liposomes (labeled as +PIP-2). Control was liposomes alone without LPS (labeled as control). Mice were sacrificed at 6, 12, or 24 h after LPS and lungs were perfused in situ for 15 min with saline solution containing the fluorophore difluorofluoroscein diacetate (DFF-DA). Lungs then were homogenized and assayed for: FIG. 9A: aiPLA2 activity; FIG. 9B: fluorescence of the lung homogenate as an index of ROS production. […]

The target in another series is T2, aiPLA2 activity (Homo sapiens, UniProt P30041).
T2 sequence (P30041 1-224): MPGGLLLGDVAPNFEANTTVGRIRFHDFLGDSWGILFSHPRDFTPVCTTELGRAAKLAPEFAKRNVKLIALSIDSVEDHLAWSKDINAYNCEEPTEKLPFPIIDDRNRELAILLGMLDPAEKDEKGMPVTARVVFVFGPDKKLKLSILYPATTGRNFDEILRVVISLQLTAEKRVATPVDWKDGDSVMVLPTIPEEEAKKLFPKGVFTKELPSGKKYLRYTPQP
Kind of series: Inhibitory activity of PIP-2 after storage as dry powder at room temp. In kind it is biochemical. The settings on record: for aiPLA2 Activity: PIP-2 stored as dry powder at room temp. As to the method:
aiPLA2 activity was measured at intervals to determine how long the peptide could maintain its efficacy as an inhibitor of aiPLA2 activity. The peptide was stable for the 4 months of observation.

Another series concerns mice, high dose IT LPS. The experiment in a line: High dose intratracheal LPS (15 μg/g): survival and lung injury of survivors.

Protocol for mice, high dose IT LPS: LPS (15 mg/g body wt) was given to all mice either by: FIG. 7A: intratracheal (IT) or FIG. 7B: intraperitoneal (IP) injection. PIP-2 in liposomes or placebo (liposomes alone) was administered intravenously (IV) 12 h after LPS (this is treatment time zero) and then at 12 or 24 h intervals for a total of 5 doses as indicated by the arrows. FIG. 7A: PIP-2 at 2 μg/g body wt; N=14 for each group. FIG. 7B: PIP-2 at 2 or 20 μg/g body wt.; Placebo group, n=8; PIP-2 2 mg group, n=7; PIP-2 20 mg group, n=10.
Anesthesized mice were administered LPS (either 5 or 15 μgig body weight) in 20 μl saline that was instilled into the lung through an endotracheal catheter placed at the level of the tracheal carina. […] PIP-2 in liposomes was suspended in 20 μl saline for IV or IT injection. For studies to evaluate the effect of PIP-2 at zero time, LPS administration was followed by liposomes±PIP-2 also given by IT instillation. For studies to evaluate the effect of PIP-2 administered at later times after LPS, the liposomes±PIP-2 were given by injection into a retinal artery. This shift in route of administration was used to minimize damage to the mouse trachea that could occur with repeated tracheostomy and lead to untoward effects on the lung. […] We gave the second dose of PIP-2 at 12 h to be certain of maximal coverage and then went to every 24 h for PIP-2 administration. For the model of sepsis, LPS (15 μg/g body wt.) in 20 μl saline was injected intraperitoneally and mice were treated with IV PIP-2 at either 2 or 20 μg/g body wt; note that the initial dose of PIP-2 for this sepsis model was IV, not IT. We used the same times of PIP-2 administration in the sepsis model as were used for the IT LPS model. After recovery from anesthesia, all mice were maintained in the vivarium with access ad lib to food and water.
At the end of each experiment with IT LPS (at either 24 or 120 h), surviving mice were sacrificed by exsanguination under anesthesia. Lungs in situ were cleared of blood by perfusion through the pulmonary artery and then were lavaged through the trachea with saline. The lung was then removed from the thorax for tissue assays. We evaluated the effect of LPS on lung injury by measuring the number of nucleated cells and the protein content in the lung bronchoalveolar lavage fluid (BALf), the lung wet to dry lung weight ratio using the left upper lobe of lung, and thiobarbituric-acid reactive products (TBARS), 8-isoprostanes, and protein carbonyls in the lung homogenate to determine the oxidation of lung tissue lipid and protein components. For studies of mouse mortality, survival plots were constructed using the Kaplan-Meier estimator.
The survival data is plotted with the initial PIP-2 treatment as 0 time; LPS was administered 12 h before PIP-2 (−12 h that is off of the graph in FIG. 7A and FIG. 7B).
Mice were instilled IT with LPS (15 μg/g wt); PIP-2 (2 μg/g body wt) in liposomes was injected (IV) at the times shown in FIG. 7A. Five of the surviving mice were sacrificed at 120 h after LPS; control mice were given liposomes but not LPS. […] Values are mean±SE for N=4 for control and N=5 for LPS+PIP-2.

In the case of LHDFRHQIL (Inhibitory peptide.) [PIP-2], the “generation of H2O2” value in the series on NADPH oxidase (NOX2) (PIP-2 2 ug/g in liposomes) is listed as “markedly inhibits”. In addition, the “effect on the rate of H2O2 production” value with NADPH oxidase (NOX2) (PIP-2 2 ug/g in saline) is on record as “no effect”. For the same sequence, the “aiPLA2 activity of lung after LPS” value with aiPLA2 activity of Prdx6 was “dramatic decrease”. The “aiPLA2 Activity” value with aiPLA2 activity (0 days, no PIP-2 100) is listed as 29.7 ± 2.9 nmol/min/mg prot; with aiPLA2 activity (30 d) it was 31.1 ± 1.3 nmol/min/mg prot; with aiPLA2 activity (45 d) it was 31.8 ± 1.0 nmol/min/mg prot; in the series with aiPLA2 activity (60 d), 32.8 ± 0.9 nmol/min/mg prot; in the series with aiPLA2 activity (120 d, no PIP-2 at 120 d 103), 31.9 ± 2.4 nmol/min/mg prot. Also, the “stability as dry powder” value with aiPLA2 activity (room temp., 4 months of observation) is listed as “stable”. Besides, the “lungs of PIP-2 treated mice that survive high dose LPS” value with mice, high dose IT LPS (LPS 15 μg/g IT or IP, PIP-2 2 or 20 μg/g IV, 5 days after LPS) was “normal lungs”. In addition, the BALf cells in the series with mice, high dose IT LPS (LPS 15 μg/g IT, PIP-2 2 μg/g IV in liposomes 5 doses, survivors sacrificed 120 h after LPS, control 0.95) was 0.96 ± 0.40 ×10^4/g body wt. Also, in the series with mice, high dose IT LPS (LPS 15 μg/g IT, PIP-2 2 μg/g IV, survivors at 120 h after LPS, control 5.59), the Wet/Dry ratio is reported as 5.34 ± 0.03. The sequence further yielded a Protein carbonyls in the series with mice, high dose IT LPS (LPS 15 μg/g IT, PIP-2 2 μg/g IV, survivors at 120 h after LPS, control 5.6) of 5.6 ± 0.2 nmol/mg prot. In the series on mice, high dose IT LPS (LPS 15 μg/g IT, PIP-2 2 μg/g IV, survivors at 120 h after LPS, control 34), this sequence returned an 8-Isoprostanes of 34 ± 3 pmol/mg prot. In addition, in the series on mice, high dose IT LPS (LPS 15 μg/g IT, PIP-2 2 μg/g IV, survivors at 120 h after LPS, control 75), the BALf protein is recorded as 78 ± 2.2 μg/g wt. Besides, the TBARS with mice, high dose IT LPS (LPS 15 μg/g IT, PIP-2 2 μg/g IV, survivors at 120 h after LPS, control 76) was found to be 77 ± 1 pmol/mg prot. The sequence further showed a mortality in the series on mice, high dose IT LPS (LPS 15 μg/g IT, PIP-2 2 μg/g IV at 12, 24, 48, 72, 96 h after LPS, at 36 h after start of treatment, no further mortality, placebo 100% by 48 h) of 17%. The survival in the series with mice, high dose IT LPS (LPS 15 μg/g IT, PIP-2 2 μg/g IV, at 36 h after start of treatment) was 83%.
